According to US9708321B2, “Spiro-quinazolinone derivatives and their use as positive allosteric modulators of mGluR4” (Merck Patent GmbH, priority 2013, dated 2017):

target: T1, hmGluR4 (Homo sapiens, UniProt Q14833); assay: HEK-293 mGluR4 cells cAMP assay with EC20 L-Glutamate (HTRF); type: cell-based; conditions: not given
T1 construct: host or cells: HEK293T
Experimental: II. Biological Assays HEK-293 mGluR4 Cells cAMP Assay with EC20 L-Glutamate
Using mGluR4 suspension cell format, 10 μM Forskolin (final conc.) used to induce the production of cAMP.
Test the positive allosteric activity of the compounds of the invention at EC20 (2.3 μM for mGluR4 and 4.3 μM for mGluR6) L-Glutamate,
cAMP dymanic2 kit is intended for the direct quantitative determination of cAMP and its principle is based on HTRF technology.
• Cells: HEK293T mGluR4 cells from Multispan, cat# C1191a lot# C1191a-040910 • Culture Media: DMEM+GlutaMAX1+10% dialyzed FBS, 100 mM Sodium Pyruvate, 1 ug/ml puromycin. • Glutamine Starvation Media: DMEM without GlutaMax for plating the cells (glutamine starvation overnight). DMEM high Glucose, without phenol red, glutamine, or sodium pyruvate+10% dialyzed FBS, 100 mM Sodium Pyruvate, 1 ug/ml puromycin, 10 mM Hepes. • Hanks' balanced Salt Solution, HBSS from Invitrogen • Greiner 384 well white low volume high base plate (784075) • cAMP dynamic2 from Cisbio Bioassays • Glutamate: L-Glutamaic acid, monosodium salt, Monohydrate, 98%, from Sigma-Aldrich • Cell Preparation: split cells at 80%-90% confluence. The following day, rinse the cells with DMEM without GlutaMax and change to Glutamine Starvation Media. Incubate overnight. Assay: • Prepare compound plate: Perform compound serial dilution (uses Matrix 4341 plate), using the Bravo liquid handling platform protocol (compound serial dilution) which adds DMSO to columns 1-24 (except cols. 3 and 13). Serial dilute compounds located in columns 3 and 13 at a 1:3 ratio; 10 points (10 ul of 3 mM compound into 20 ul DMSO). Use the Bravo liquid handling platform to transfer 1 ul from the serial dilution plate into Matrix 4314 plate to create stamp plates. Prepare Compound Dilution Buffer: • Dilute 20 mM Forskolin (in DMSO) stock solution in HBSS buffer to make a 20 uM solution (forskolin buffer; 2× solution). To the forskolin buffer, add glutamate to a concentration of 8 uM (compound dilution buffer; 2× EC20 glutamate and forskolin). • Using a multidrop, add 50 ul/well of compound dilution buffer to columns 1-22 of the 2 ul compound stamp plate. Columns 23 and 24 receive forskolin buffer containing 400 uM glutamate (EC100 glutamate; 2× solution). Columns 1 and 2 receive compound dilution buffer containing EC20 glutamate, which is the basal control. • Add a glutamate dose response to row P of compound plate. Prepare the dose response by serial diluting glutamate at a 1:3 ratio in forskolin buffer starting at 2 mM glutamate (2×). Dilute the glutamate 9 times and transfer to compound plate. Prepare Cell Plates: • Harvest cells: Rinse cells with pre-warmed HBSS-10 mM HEPES (without Ca Mg) and dissociate the cells from the flask with versene. Centrifuge the cells, remove the supernatant and suspend in pre-warmed HBSS+10 mM Hepes. Count the cells and centrifuge. Remove the supernatant and suspend the cells in HBSS+Hepes (with Ca Mg) at a density of 400,000 cells/ml. Perform Assay: • Dispense 5 ul from the diluted compound plate into Greiner low volume cell plate using the Bravo liquid handling platform. Using a Multidrop with the small tubing cassette, dispense 5 ul of cells (2000 cells/well) onto the compounds contained in the low volume plates. Incubate the cells at 37° C., 5% CO2 for 30 minutes in the incubator. Assay for cAMP: • Prepare cAMP-d2 and anti-cAMP-Crytate according to the instructions for the two step assay (see Cisbio manual) and add 10 ul of the mixed reagent to each well of the assay plate using the Multidrop. Incubate at room temperature for 60 minutes and read on the Envision plate reader using the mGluR low volume cAMP HTRF 384 well protocol.

T1 sequence (Q14833 33-912): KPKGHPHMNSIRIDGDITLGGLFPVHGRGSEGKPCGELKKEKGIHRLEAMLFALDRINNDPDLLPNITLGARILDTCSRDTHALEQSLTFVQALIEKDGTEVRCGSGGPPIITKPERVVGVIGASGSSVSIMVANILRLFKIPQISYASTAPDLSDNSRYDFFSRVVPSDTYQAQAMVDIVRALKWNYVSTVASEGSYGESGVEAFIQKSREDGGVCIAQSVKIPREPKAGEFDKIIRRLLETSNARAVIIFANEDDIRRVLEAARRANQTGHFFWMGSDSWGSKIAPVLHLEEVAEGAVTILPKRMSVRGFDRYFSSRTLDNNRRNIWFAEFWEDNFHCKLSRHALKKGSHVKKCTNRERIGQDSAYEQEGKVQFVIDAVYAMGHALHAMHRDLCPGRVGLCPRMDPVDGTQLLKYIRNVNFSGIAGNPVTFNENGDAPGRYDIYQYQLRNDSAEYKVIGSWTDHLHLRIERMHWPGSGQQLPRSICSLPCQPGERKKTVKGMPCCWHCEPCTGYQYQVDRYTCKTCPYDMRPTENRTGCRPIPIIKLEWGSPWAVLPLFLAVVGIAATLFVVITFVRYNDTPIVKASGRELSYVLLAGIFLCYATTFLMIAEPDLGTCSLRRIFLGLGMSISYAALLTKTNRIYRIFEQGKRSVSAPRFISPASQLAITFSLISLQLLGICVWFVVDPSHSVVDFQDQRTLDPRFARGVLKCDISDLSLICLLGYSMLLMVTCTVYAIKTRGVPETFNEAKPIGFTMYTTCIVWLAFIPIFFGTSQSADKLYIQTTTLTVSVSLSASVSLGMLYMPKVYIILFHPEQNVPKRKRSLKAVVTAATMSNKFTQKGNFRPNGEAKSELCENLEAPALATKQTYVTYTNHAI

Q: How did the EC50 turn out when `COc1ccc(N2C(=O)c3ccc(Br)cc3NC23CCN(Cc2ccc(F)c(F)c2)CC3)cc1F` [Compound 24, 7′-Bromo-1-(3,4-difluorobenzyl)-3′-(3-fluoro-4-methoxyphenyl)-1′H-spiro[piperidine-4,2′-quinazolin]-4′(3′H)-one] was run?
A: Its EC50 is < 1000 nM.

same assay, conditions: positive allosteric activity at EC20 L-Glutamate, 10 μM Forskolin, HEK293T mGluR4 cells, cAMP HTRF; read-out: hrmGluR4/HEK293T-hmGluR4 (EC50)

Q: For `CCOC(=O)c1ccc2c(c1)NC1(CCN(Cc3ccc(F)c(F)c3)CC1)N(c1ccc(OC)cc1)C2=O` [Compound 1, Ethyl 1-(3,4-difluorobenzyl)-3′-(4-methoxyphenyl)-4′-oxo-3′,4′-dihydro-1′H-spiro[piperidine-4,2′-quinazoline]-7′-carboxylate], which EC50 is on record?
A: The EC50 was < 1000 nM.

Q: How did the EC50 turn out when `Cc1cc2cc(N3C(=O)c4ccc(Br)cc4NC34CCN(Cc3ccc(F)c(F)c3)CC4)ccc2o1` [Compound 2, 7′-Bromo-1-(3,4-difluorobenzyl)-3′-(2-methylbenzofuran-5-yl)-1′H-spiro[piperidine-4,2′-quinazolin]-4′(3′H)-one] was run?
A: Its EC50 is < 1000 nM.

Q: For `COc1ccc(N2C(=O)c3ccc(C(=O)OC(C)C)cc3NC23CCN(Cc2ccc(F)c(F)c2)CC3)cc1` [Compound 3, Isopropyl 1-(3,4-difluorobenzyl)-3′-(4-methoxyphenyl)-4′-oxo-3′,4′-dihydro-1′H-spiro[piperidine-4,2′-quinazoline]-7′-carboxylate], which EC50 is on record?
A: The EC50 was < 1000 nM.

Q: For `COC(=O)c1ccc2c(c1)NC1(CCN(Cc3ccc(F)c(F)c3)CC1)N(c1ccc(OC)cc1)C2=O` [Compound 4, Methyl 1-(3,4-difluorobenzyl)-3′-(4-methoxyphenyl)-4′-oxo-3′,4′-dihydro-1′H-spiro[piperidine-4,2′-quinazoline]-7′-carboxylate], which EC50 is on record?
A: The EC50 was < 1000 nM.

Q: For `CSc1ccc(N2C(=O)c3ccc(Br)cc3NC23CCN(Cc2ccc(F)c(F)c2)CC3)cc1` [Compound 5, 7′-Bromo-1-(3,4-difluorobenzyl)-3′-(4-(methylthio)phenyl)-1′H-spiro[piperidine-4,2′-quinazolin]-4′(3′H)-one], which EC50 is on record?
A: The EC50 was < 1000 nM.

Q: Which EC50 does the source give for `O=C1c2ccc(-c3ccco3)cc2NC2(CCN(Cc3ccc(F)c(F)c3)CC2)N1c1ccc(OC(F)(F)F)cc1` [Compound 6, 1-(3,4-Difluorobenzyl)-7′-(furan-2-yl)-3′-(4-(trifluoromethoxy)phenyl)-1′H-spiro[piperidine-4,2′-quinazolin]-4′(3′H)-one] here?
A: Its EC50 is < 1000 nM.

Q: With `CC(c1ccc(F)c(F)c1)N1CCC2(CC1)Nc1cc(Br)ccc1C(=O)N2c1ccc(Cl)cc1` (stereo not drawn) [Compound 7, 7′-Bromo-3′-(4-chlorophenyl)-1-(1-(3,4-difluorophenyl)ethyl)-1′H-spiro[piperidine-4,2′-quinazolin]-4′(3′H)-one] as the molecule, how does the EC50 read?
A: The EC50 was < 1000 nM.

Q: With `CC(c1ccc(F)c(F)c1)N1CCC2(CC1)Nc1cc(Br)ccc1C(=O)N2c1ccc(OC(F)(F)F)cc1` (stereo not drawn) [Compound 8, 7′-Bromo-1-(1-(3,4-difluorophenyl)ethyl)-3′-(4-(trifluoromethoxy)phenyl)-1′H-spiro[piperidine-4,2′-quinazolin]-4′(3′H)-one] as the molecule, how does the EC50 read?
A: The EC50 was < 1000 nM.

Q: With `O=C1c2ccc(-c3ccncn3)cc2NC2(CCN(Cc3ccc(F)c(F)c3)CC2)N1c1ccc(OC(F)(F)F)cc1` [Compound 9, 1-(3,4-Difluorobenzyl)-7′-(pyrimidin-4-yl)-3′-(4-(trifluoromethoxy)phenyl)-1′H-spiro[piperidine-4,2′-quinazolin]-4′(3′H)-one] as the molecule, how does the EC50 read?
A: The EC50 was < 1000 nM.

Q: For `O=C1c2ccc(C(F)(F)F)cc2NC2(CCN(Cc3cccc(Cl)c3)CC2)N1c1ccc(OC(F)(F)F)cc1` [Compound 10, 1-(3-Chlorobenzyl)-3′-(4-(trifluoromethoxy)phenyl)-7′-(trifluoromethyl)-1′H-spiro[piperidine-4,2′-quinazolin]-4′(3′H)-one], which EC50 is on record?
A: Its EC50 is < 1000 nM.

Q: `COc1ccc(N2C(=O)c3ccc(-c4ccco4)cc3NC23CCN(Cc2ccc(F)c(F)c2)CC3)cc1` [Compound 11, 1-(3,4-Difluorobenzyl)-7′-(furan-2-yl)-3′-(4-methoxyphenyl)-1′H-spiro[piperidine-4,2′-quinazolin]-4′(3′H)-one] was tested. Which EC50 did it give?
A: The EC50 was < 1000 nM.

Q: How did the EC50 turn out when `CC(=O)c1cc2c(cc1Br)C(=O)N(c1ccc(OC(F)(F)F)cc1)C1(CCN(Cc3ccc(F)c(F)c3)CC1)N2` [Compound 12, 7′-Acetyl-6′-bromo-1-(3,4-difluorobenzyl)-3′-(4-(trifluoromethoxy)phenyl)-1′H-spiro[piperidine-4,2′-quinazolin]-4′(3′H)-one] was run?
A: The EC50 was < 1000 nM.

Q: `COc1ccc(N2C(=O)c3ccccc3NC23CCN(Cc2cc(Cl)ccc2Cl)CC3)cc1` [Compound 13, 1-(2,5-Dichlorobenzyl)-3′-(4-methoxyphenyl)-1′H-spiro[piperidine-4,2′-quinazolin]-4′(3′H)-one] was tested. Which EC50 did it give?
A: Its EC50 is < 1000 nM.

Q: Which EC50 does the source give for `COc1ccc(N2C(=O)c3ccc(-c4nccs4)cc3NC23CCN(Cc2ccc(F)c(F)c2)CC3)cc1` [Compound 14, 1-(3,4-Difluorobenzyl)-3′-(4-methoxyphenyl)-7′-(thiazol-2-yl)-1′H-spiro[piperidine-4,2′-quinazolin]-4′(3′H)-one] here?
A: The EC50 was < 1000 nM.

Q: With `COC(=O)c1ccc2c(c1)NC1(CCN(Cc3ccccc3)CC1)N(c1ccc(OC)cc1)C2=O` [Compound 15, Methyl 1-benzyl-3′-(4-methoxyphenyl)-4′-oxo-3′,4′-dihydro-1′H-spiro[piperidine-4,2′-quinazoline]-7′-carboxylate] as the molecule, how does the EC50 read?
A: The EC50 was < 1000 nM.

Q: How did the EC50 turn out when `O=C1c2ccc(C(F)(F)F)cc2NC2(CCN(Cc3ccc(F)c(F)c3)CC2)N1c1ccc(OC(F)(F)F)cc1` [Compound 16, 1-(3,4-Difluorobenzyl)-3′-(4-(trifluoromethoxy)phenyl)-7′-(trifluoromethyl)-1′H-spiro[piperidine-4,2′-quinazolin]-4′(3′H)-one] was run?
A: Its EC50 is < 1000 nM.

Q: With `COc1ccc(N2C(=O)c3ccc(Br)cc3NC23CCN(Cc2ccc(F)c(F)c2)CC3)cc1` [Compound 17, 7′-Bromo-1-(3,4-difluorobenzyl)-3′-(4-methoxyphenyl)-1′H-spiro[piperidine-4,2′-quinazolin]-4′(3′H)-one] as the molecule, how does the EC50 read?
A: The EC50 was < 1000 nM.

Q: For `CCOC(=O)c1ccc2c(c1)NC1(CN(Cc3ccccc3Cl)C1)N(c1ccc(OC(F)(F)F)cc1)C2=O` [Compound 18, Ethyl 1-(2-chlorobenzyl)-4′-oxo-3′-(4-(trifluoromethoxy)phenyl)-3′,4′-dihydro-1′H-spiro[azetidine-3,2′-quinazoline]-7′-carboxylate], which EC50 is on record?
A: Its EC50 is < 1000 nM.

Q: How did the EC50 turn out when `COc1ccc(N2C(=O)c3ccc(-c4ccccc4)cc3NC23CCN(Cc2ccc(F)c(F)c2)CC3)cc1` [Compound 19, 1-(3,4-Difluorobenzyl)-3′-(4-methoxyphenyl)-7′-phenyl-1′H-spiro[piperidine-4,2′-quinazolin]-4′(3′H)-one] was run?
A: Its EC50 is < 1000 nM.

Q: `COc1ccc(N2C(=O)c3ccc(-c4ccncc4)cc3NC23CCN(Cc2ccc(F)c(F)c2)CC3)cc1` [Compound 20, 1-(3,4-Difluorobenzyl)-3′-(4-methoxyphenyl)-7′-(pyridin-4-yl)-1′H-spiro[piperidine-4,2′-quinazolin]-4′(3′H)-one] was tested. Which EC50 did it give?
A: Its EC50 is < 1000 nM.

Q: How did the EC50 turn out when `O=C1c2ccc(N3CCOCC3)cc2NC2(CCN(Cc3ccc(F)c(F)c3)CC2)N1c1ccc(OC(F)(F)F)cc1` [Compound 21, 1-(3,4-Difluorobenzyl)-7′-morpholino-3′-(4-(trifluoromethoxy)phenyl)-1′H-spiro[piperidine-4,2′-quinazolin]-4′(3′H)-one] was run?
A: The EC50 was < 1000 nM.

Q: Which EC50 does the source give for `CCC(c1ccc(F)c(F)c1)N1CCC2(CC1)Nc1cc(Br)ccc1C(=O)N2c1ccc(OC(F)(F)F)cc1` (stereo not drawn) [Compound 22, 7′-Bromo-1-(1-(3,4-difluorophenyl)propyl)-3′-(4-(trifluoromethoxy)phenyl)-1′H-spiro[piperidine-4,2′-quinazolin]-4′(3′H)-one] here?
A: Its EC50 is < 1000 nM.

Q: For `COc1ccc(N2C(=O)c3ccc(F)cc3NC23CCN(Cc2ccc(F)c(F)c2)CC3)cc1` [Compound 23, 1-(3,4-Difluorobenzyl)-7′-fluoro-3′-(4-methoxyphenyl)-1′H-spiro[piperidine-4,2′-quinazolin]-4′(3′H)-one], which EC50 is on record?
A: Its EC50 is < 1000 nM.
